Patent US6727232B2, “Nucleoside peptide antibiotics of AA-896” (Wyeth Holdings Corporation, priority 2001, dated 2004)
Values after ≈ are worked out from the molar mass of the structure shown. Where two headings read alike, the source gives them in different places.

How the values were obtained:
Test in all cases: Broth dilution MIC
Type in all cases: cell-based
[1] = test system: E. coli GC 4559; details: Escherichia coli, read-out: Antimicrobial Activity (MIC)
Summary of the method: (§1)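 Standard broth dilution: make serial dilutions of compound in Mueller-Hinton broth, add bacterial suspension, incubate 18 hours at 35° C., then record the lowest concentration inhibiting growth.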

[2] = test system: E. faecalis GC 4555; details: Enterococcus faecalis, read-out: Antimicrobial Activity (MIC)
Summary of the method: as §1

[3] = test system: E. coli GC 4560; details: Escherichia coli, read-out: Antimicrobial Activity (MIC)
Summary of the method: as §1

[4] = test system: CNS GC 4547; details: read-out: Antimicrobial Activity (MIC)
Summary of the method: as §1

[5] = test system: E. coli GC 3226; details: Escherichia coli, read-out: Antimicrobial Activity (MIC)
Summary of the method: as §1

[6] = test system: E. coli GC 2203; details: Escherichia coli, read-out: Antimicrobial Activity (MIC)
Summary of the method: as §1

[7] = test system: K. pneumoniae GC 4534; details: Klebsiella pneumoniae, read-out: Antimicrobial Activity (MIC)
Summary of the method: as §1

[8] = test system: M. morganii GC 4531; details: Morganella morganii, read-out: Antimicrobial Activity (MIC)
Summary of the method: as §1

[9] = test system: P. aeruginosa GC 4532; details: Pseudomonas aeruginosa, read-out: Antimicrobial Activity (MIC)
Summary of the method: as §1

[10] = test system: S. aureus GC 2216; details: Staphylococcus aureus, read-out: Antimicrobial Activity (MIC)
Summary of the method: as §1

[11] = test system: S. aureus GC 4536; details: Staphylococcus aureus, read-out: Antimicrobial Activity (MIC)
Summary of the method: as §1

[12] = test system: E. cloacae GC 3783; details: Enterobacter cloacae, read-out: Antimicrobial Activity (MIC)
Summary of the method: as §1

[13] = test system: E. faecalis GC 2242; details: Enterococcus faecalis, read-out: Antimicrobial Activity (MIC)
Summary of the method: as §1

[14] = test system: E. faecalis GC 842; details: Enterococcus faecalis, read-out: Antimicrobial Activity (MIC)
Summary of the method: as §1

[15] = test system: P. aeruginosa GC 2214; details: Pseudomonas aeruginosa, read-out: Antimicrobial Activity (MIC)
Summary of the method: as §1

[16] = test system: S. aureus GC 1131; details: Staphylococcus aureus, read-out: Antimicrobial Activity (MIC)
Summary of the method: as §1

[17] = test system: S. marcescens GC 4077; details: Serratia marcescens, read-out: Antimicrobial Activity (MIC)
Summary of the method: as §1

[18] = test system: P. rettgeri GC 4530; details: Providencia rettgeri, read-out: Antimicrobial Activity (MIC)
Summary of the method: as §1

[19] = test system: CNS GC 4537; details: read-out: Antimicrobial Activity (MIC)
Summary of the method: as §1

[20] = test system: CNS GC 4538; details: read-out: Antimicrobial Activity (MIC)
Summary of the method: as §1

[21] = GC4559, E. coli GC 4559, Mueller-Hinton broth, 18 hours at 35° C.
[22] = GC4555, E. faecalis GC 4555, Mueller-Hinton broth, 18 hours at 35° C.
[23] = CNS GC 4547, Mueller-Hinton broth, 18 hours at 35° C.
[24] = GC3226, E. coli GC 3226, Mueller-Hinton broth, 18 hours at 35° C.
[25] = GC2203, E. coli GC 2203, Mueller-Hinton broth, 18 hours at 35° C.
[26] = GC4534, K. pneumoniae GC 4534, Mueller-Hinton broth, 18 hours at 35° C.
[27] = GC4531, M. morganii GC 4531, Mueller-Hinton broth, 18 hours at 35° C.
[28] = GC4532, P. aeruginosa GC 4532, Mueller-Hinton broth, 18 hours at 35° C.
[29] = GC2216, S. aureus GC 2216, Mueller-Hinton broth, 18 hours at 35° C.
[30] = GC4536, S. aureus GC 4536, Mueller-Hinton broth, 18 hours at 35° C.
[31] = GC3783, E. cloacae GC 3783, Mueller-Hinton broth, 18 hours at 35° C.
[32] = GC2242, E. faecalis GC 2242, Mueller-Hinton broth, 18 hours at 35° C.
[33] = GC842, E. faecalis GC 842, Mueller-Hinton broth, 18 hours at 35° C.
[34] = GC2214, P. aeruginosa GC 2214, Mueller-Hinton broth, 18 hours at 35° C.
[35] = GC1131, S. aureus GC 1131, Mueller-Hinton broth, 18 hours at 35° C.
[36] = GC4077, S. marcescens GC 4077, Mueller-Hinton broth, 18 hours at 35° C.
[37] = GC4530, P. rettgeri GC 4530, Mueller-Hinton broth, 18 hours at 35° C.
[38] = CNS GC 4537, Mueller-Hinton broth, 18 hours at 35° C.
[39] = CNS GC 4538, Mueller-Hinton broth, 18 hours at 35° C.

SMILES	MIC ([3]; GC4560, 18 h) [µg/mL]	MIC [1, 21] [µg/mL]	MIC [2, 22] [µg/mL]	MIC [4, 23] [µg/mL]	MIC [5, 24] [µg/mL]	MIC [6, 25] [µg/mL]	MIC [7, 26] [µg/mL]	MIC [8, 27] [µg/mL]	MIC [9, 28] [µg/mL]	MIC [10, 29] [µg/mL]	MIC [11, 30] [µg/mL]	MIC [12, 31] [µg/mL]	MIC [13, 32] [µg/mL]	MIC [14, 33] [µg/mL]	MIC [15, 34] [µg/mL]	MIC [16, 35] [µg/mL]	MIC [17, 36] [µg/mL]	MIC [18, 37] [µg/mL]	MIC [19, 38] [µg/mL]	MIC [20, 39] [µg/mL]	also measured
CO[C@H]1C(O[C@H](C(C(=O)O)N(CCCCCCCCCCCCN2CCOCC2)CCCNC(=O)C(NC(=O)C(NC(=O)NC(C(=O)O)C(C)C)C2CCNC(=N)N2)C(O)C(C)C)[C@H]2O[C@@H](n3ccc(=O)[nH]c3=O)[C@H](O)[C@@H]2O)O[C@H](CN)[C@@H]1O (stereo partly drawn) [Example 8, 16-((R)-{[(3R,4S,5R)-5-(Aminomethyl)-4-hydroxy-3-methoxytetrahydro-2-furanyl]oxy}{(2S,3S,4R,5R)-5-[2,4-dioxo-3,4-dihydro-1 (2H)-pyrimidinyl]-3,4-dihydroxytetrahydro-2-furanyl}methyl)-9-(1-hydroxy-2-methylpropyl)-6-(2-iminohexahydro-4-pyrimidinyl)-2-isopropyl-15-[12-(4-morpholinyl)dodecyl]-4,7,10-trioxo-3,5,8,11,15-pentaazaheptadecane-1,17-dioic Acid]	> 32	–	–	–	–	–	–	–	–	–	–	–	–	–	–	–	–	–	–	–	MIC ([1]; GC4559, 18 h): > 32 µg/mL; MIC ([2]; GC4555, 18 h): > 32 µg/mL; MIC ([4]; 18 h): > 32 µg/mL; MIC ([5]; GC3226, 18 h): > 32 µg/mL; MIC ([6]; GC2203, 18 h): > 32 µg/mL; MIC ([7]; GC4534, 18 h): > 32 µg/mL; MIC ([8]; GC4531, 18 h): > 32 µg/mL; MIC ([9]; GC4532, 18 h): > 32 µg/mL; MIC ([10]; GC2216, 18 h): > 32 µg/mL; MIC ([11]; GC4536, 18 h): > 32 µg/mL; MIC ([12]; GC3783, 18 h): > 32 µg/mL; MIC ([13]; GC2242, 18 h): > 32 µg/mL; MIC ([14]; GC842, 18 h): > 32 µg/mL; MIC ([15]; GC2214, 18 h): > 32 µg/mL; MIC ([16]; GC1131, 18 h): > 32 µg/mL; MIC ([17]; GC4077, 18 h): > 32 µg/mL; MIC ([18]; GC4530, 18 h): > 32 µg/mL; MIC ([19]; 18 h): > 32 µg/mL; MIC ([20]; 18 h): > 32 µg/mL
CCCCCN(CCCNC(=O)C(NC(=O)C(NC(=O)NC(C(=O)O)C(C)C)C1CCNC(=N)N1)C(O)C(C)C)C(C(=O)O)[C@@H](OC1O[C@H](CN)[C@H](O)[C@H]1OC)[C@H]1O[C@@H](n2ccc(=O)[nH]c2=O)[C@H](O)[C@@H]1O (stereo partly drawn) [Example 9, 16-((R)-{[(3R,4S,5R)-5-(Aminomethyl)-4-hydroxy-3-methoxytetrahydro-2-furanyl]oxy}{(2S,3S,4R,5R)-5-[2,4-dioxo-3,4-di hydro-1 (2H)-pyrimidinyl]-3,4-dihydroxytetrahydro-2-furanyl}methyl)-9-(1-hydroxy-2-methylpropyl)-6-(2-iminohexahydro-4-pyrimidinyl)-2-isopropyl-4,7,10-trioxo-15-pentyl-3,5,8,11,15-pentaazaheptadecane-1,17-dioic Acid]	32 (≈ 31.5 µM)	> 32	> 32	> 32	> 32	> 32	> 32	> 32	> 32	> 32	> 32	> 32	> 32	> 32	> 32	> 32	> 32	> 32	> 32	> 32	–
CCCCCCNC(=O)NC[C@H]1OC(O[C@H](C2C(=O)N(CCCCCC)C(=O)N2CCCNC(=O)C(NC(=O)C(NC(=O)NC(C(=O)O)C(C)C)C2CCNC(=N)N2)C(O)C(C)C)[C@H]2O[C@@H](n3ccc(=O)[nH]c3=O)[C@H](O)[C@@H]2O)[C@H](OC)[C@H]1O (stereo partly drawn) [Example 14, 14-[5-((R)-{(2S,3S,4R,5R)-5-[2,4-Dioxo-3,4-dihydro-1 (2H)-pyrimidinyl]-3,4-dihydroxytetrahydro-2-furanyl}{[(3R,4S,5R)-5-({[(hexylamino)carbonyl]amino}methyl)-4-hydroxy-3-methoxytetrahydro-2-furanyl]oxy}methyl)-3-hexyl-2,4-dioxo-1-imidazolidinyl]-9-(1-hydroxy-2-methylpropyl)-6-(2-iminohexahydro-4-pyrimidinyl)-2-isopropyl-4,7,10-trioxo-3,5,8,11-tetraazatetradecan-1-oic Acid]	–	> 32	> 32	16 (≈ 13.5 µM)	> 32	> 32	> 32	> 32	> 32	32 (≈ 27.1 µM)	32 (≈ 27.1 µM)	> 32	32 (≈ 27.1 µM)	> 32	> 32	32 (≈ 27.1 µM)	> 32	> 32	32 (≈ 27.1 µM)	32 (≈ 27.1 µM)	MIC ([3]; GC4560, E. coli GC 4560, Mueller-Hinton broth, 18 hours at 35° C.): 32 µg/mL (≈ 27.1 µM)
CCCCCNC[C@H]1OC(O[C@H](C(C(=O)O)N(CCCCC)CCCNC(=O)C(NC(=O)C(NC(=O)NC(C(=O)O)C(C)C)C2CCNC(=N)N2)C(O)C(C)C)[C@H]2O[C@@H](n3ccc(=O)[nH]c3=O)[C@H](O)[C@@H]2O)[C@H](OC)[C@H]1O (stereo partly drawn) [Example 17, 16-[(R)-{(2S,3S,4R,5R)-5-[2,4-Dioxo-3,4-dihydro-1 (2H)-pyrimidinyl]-3,4-dihydroxytetrahydro-2-furanyl}({(3R,4S,5R)-4-hydroxy-3-methoxy-5-[(pentylamino)methyl]tetrahydro-2-furanyl}oxy)methyl]-9-(1-hydroxy-2-methylpropyl)-6-(2-iminohexahydro-4-pyrimidinyl)-2-isopropyl-4,7,10-trioxo-15-pentyl-3,5,8,11,15-pentaazaheptadecane-1,17-dioic Acid]	32 (≈ 29.5 µM)	> 32	> 32	32 (≈ 29.5 µM)	> 32	> 32	> 32	> 32	> 32	> 32	> 32	> 32	32 (≈ 29.5 µM)	> 32	> 32	> 32	> 32	> 32	> 32	> 32	–
